The values that follow are results of earlier work, collected in US20160114057A1, “MODULAR PROTEIN DRUG CONJUGATE THERAPEUTIC” (ZYMEWORKS INC., priority 2013, published 2016).

Usually GI50 stands for the concentration at which growth is held to half of that of the control.

Values joined by “and” are separate entries in the source; they are usually repeats but may differ in a detail not shown here. Identical values can stand only once. Like-named read-outs stand apart in the source and are kept apart here. *1 amine or outer side, *2 acyl side, *3 side chain or, on linkers, in order; H or OH if unused. Where a SMILES comes first, the peptide text is derived from it. Bridges are numbered along the chain shown (N, C = ends). [ ]: non-standard residue; d: D form. The star is where a group is joined. X2 = CC[C@@H](C)C[C@H](N[*:1])C(=O)[*:2]; X1 = CC[C@H](C)CC(N[*:1])C(=O)[*:2]; d(aThr) = C[C@@H](O)[C@@H](N)C(=O)O; NMe2Val = CC(C)[C@@H](C(=O)*)N(C)C; NMeT = CN[C@H](C(=O)O)[C@@H](C)O; Suc = O=C(CCC(=O)[*:2])[*:1]; NMeV = CN[C@H](C(=O)O)C(C)C; NHBn = c1ccc(CN*)cc1; Dha = C=C(N)C(=O)O

In data set [1] the test system is NCI tumor panel (60 cell line). The note with it: for IC50: range over cell lines.
In data set [2] the test system is various tumor cell lines.
For data set [3] the following is noted: human, in vivo.
Data set [4] concerns KB.
For data set [5] the following is noted: KB-31 (melanoma).
Data set [6] concerns HCT-116.
The conditions of data set [7]: in vivo.
Data set [8] has as its system P388.
In data set [9] the test system is MDR cell lines.
Data set [10] has as its system MCF-7 (breast).
For data set [11], the system named is MCF-7/ADR.
Assay in data set [12]: not given
This is another data set of the same source.

As for `C=C1C[C@@H]2C[C@@H]3C[C@@H](O)C[C@@H](O3)c3coc(n3)/C=C/C[C@H]3O[C@@H](/C(C)=C/c4coc(C[C@]5(O)CC(OC)C[C@H]([C@H](O)/C=C(C)/C=C/C(C/C=C/Br)OC)O5)n4)[C@H](C)[C@@H](OC(=O)/C=C\C[C@@H](C1)O2)[C@H]3C` (stereo partly drawn) [Phorboxazole A], the IC50 in [1] (NCI tumor panel) is 1 to 10 nM.
`CCCCCCCCCCCCCCCC(=O)OC1CC(C(C)C(OC)/C(C)=C/C=C/C(C)=C/c2coc(C)n2)OC(=O)C2OC2CC2CC(=O)OC(C2)C(C)/C=C/C2OC21C` (stereo not drawn) [Palmitoylrhizoxin]: the “Toxicity (in words)” value is listed as “binds LDL; less”.
In the case of `C=C(C)[C@@H]1NC(=O)[C@@H](NC)[C@@H](O)c2cc(Cl)c(O)c(c2)O[C@](C)(CC)[C@@H](C(=O)N2CC=C[C@H]2C(=O)N/C(C(=O)N/C(=C/C(=O)O)C(=O)O)=C(\C)CC)NC1=O` [Phomopsin A], in data set [2], the “activity in cell culture (in words)” value was “potent anticancer”.
As for `C/C(=C\c1csc(C)n1)[C@@H]1C[C@@H]2O[C@]2(C)CCC[C@H](C)[C@H](O)[C@@H](C)C(=O)C(C)(C)[C@@H](O)CC(=O)N1` [BMS-247550], the “Toxicity (in words)” value is “sever toxicity”. In addition, in [3], the “clinical responses (in words)” value was “tumor (objective”.
For `COc1cc2cc(c1Cl)N(C)C(=O)C[C@H](OC(=O)[C@H](C)N(C)C(C)=O)[C@]1(C)O[C@H]1[C@H](C)[C@@H]1C[C@@](O)(NC(=O)O1)[C@H](OC)/C=C/C=C(\C)C2` [Maytansine], the “Toxicity (in words)” value is reported as “severe toxicity”.
Turning to `CC(C)[C@H](NC(=O)[C@H](C(C)C)N(C)C)C(=O)N(C)[C@H](C(=O)N1CCC[C@H]1C(=O)N1CCC[C@H]1C(=O)NCc1ccccc1)C(C)C` [Cemadotin] (NMe2Val-V[NMeV]PP-NHBn), the “Toxicity (in words)” value was “hypertension,”. The “activity in NCI tumor panel (in words)” value in data set [1] is “active in breast,”.
Take `CO[C@@H](/C(C)=C/C=C/C(C)=C/c1coc(C)n1)[C@@H](C)[C@@H]1C[C@H](O)[C@@]2(C)O[C@@H]2/C=C/[C@@H](C)[C@H]2C[C@H](CC(=O)O2)C[C@H]2O[C@H]2C(=O)O1` [Rhizoxin]: the “Toxicity (in words)” value is “Rapid Drug”.
With `COc1ccc(C[C@H]2NC(=O)/C=C/C[C@@H]([C@H](C)[C@H]3O[C@@H]3c3ccccc3)OC(=O)[C@H](CC(C)C)OC(=O)CCNC2=O)cc1` [Arenastatin A analogs], the “Activity (IC50)” value in data set [4] (KB (nasopharyngeal)) was 0.005 ng/mL. Moreover, the IC50 in [4] (KB, read-out: Activity (IC50)) was 8.7 nM.
As to Halichondrin B, the “Toxicity (in words)” value (in vivo) is listed as “myelotoxicity dose”.
Epothilone D: the “Toxicity (in words)” value was “emesis and anemia;”. Further, the IC50 in data set [5] is 0.19 nM. In [6], the IC50 was 0.42 nM. For the same molecule, in [2], the “activity in cell culture (in words)” value is given as “broad activity”. Also, the t1/2 result in data set [7] is given as “t1/2 of 5-10 hrs”.
Turning to `COc1cc([C@@H]2c3cc4c(cc3[C@H](O)[C@H]3COC(=O)[C@H]23)OCO4)cc(OC)c1OC` [Podophyllotoxin], in [2], the “activity in cell culture (in words)” value was “in μM range”.
Turning to `CCCC1(O)C(O)C(C)C/C=C/C=C/C(CC(C)O)CCC2OC3(CCC(C)C(C(C)C(O)CC)O3)C(C)C(OC(=O)/C=C/C(C)C(O)C(C)C(O)C(OC3CCC(O)C(C)O3)C(O)C(O)C1O)C2C` (stereo not drawn) [IB-96212], the IC50 in data set [8] is 0.1 P388 ng/mL.
For `C=C(Cl)/C=C/[C@@H](O)CC(=C)C[C@H]1O[C@@H]2[C@H](C)[C@@H](OC(=O)C[C@@H]3C[C@H](OC(C)=O)C[C@@]4(C[C@@](C)(O)C[C@H](CC(=C)[C@@H](C)C(OC(C)=O)[C@H](C)C(=O)C[C@@H]5C[C@H](OC)C[C@@]6(C[C@@H](O)C[C@H](/C=C\CCC[C@H]7O[C@](O)(C[C@H](O)[C@H]7C)[C@H]2O)O6)O5)O4)O3)[C@@H]1O` (stereo partly drawn) [Spongistatins (1-9)], the “activity in NCI tumor panel (in words)” value in data set [1] is listed as “Most potent”. Also, the GI50 in data set [1] (NCI panel cell line, read-out: mean GI50) was 0.1 nM.
With `C/C(=C\c1csc(CN)n1)[C@@H]1C[C@@H]2O[C@]2(C)CCC[C@H](C)[C@H](O)[C@@H](C)C(=O)C(C)(C)[C@@H](O)CC(=O)O1` [BMS-310705], for the setting “in vivo”, the “Toxicity (in words)” value is given as “adverse events”. For the same molecule, the IC50 in data set [2] (broad activity, read-out: IC50) was 0.7 to 10 nM. Besides, the t1/2 in data set [7] was 3.5 hrs; improved.
Take `CCCC1C(=O)O[C@H](/C(C)=C/c2csc(C)n2)C[C@@H]2O[C@]2(C)CCC[C@H](C)[C@H](O)[C@@H](C)C(=O)C(C)(C)[C@H]1O` (stereo partly drawn) [ZK-EPO]: in data set [9], the “activity against multi-drug/drug resistant cell lines (in words)” value is on record as “active in drug”.
Take `CC/C=C\C=C/C(=O)N/C=C/CC1CC2CC(O)CC(Cc3cccc(O)c3C(=O)O1)O2` (stereo not drawn) [Apicularen A]: the IC50 result in data set [2] is “IC50's of 0.1 to 3 ng/mL”.
With `CC(=O)O[C@H]1C(=O)[C@@]2(C)[C@H]([C@H](OC(=O)c3ccccc3)[C@]3(O)C[C@H](OC(=O)[C@H](O)[C@@H](NC(=O)c4ccccc4)c4ccccc4)C(C)=C1C3(C)C)[C@]1(OC(C)=O)CO[C@@H]1C[C@@H]2O` [Taxol], for the setting “in vivo”, the “Toxicity (in words)” value is on record as “severe toxicity”.
As to `C/C(=C\c1csc(C)n1)[C@@H]1C[C@@H]2O[C@@H]2CCC[C@H](C)[C@H](O)[C@@H](C)C(=O)C(C)(C)[C@@H](O)CC(=O)O1` [Epothilone A], the IC50 in [5] is 2.1 nM; in [10], 1.5 nM; in [6], 3.2 nM; in data set [11] it was 27.1 nM.
On to `C=C1NC(=O)[C@H]([C@@H](C)CC)NC(=O)[C@@H]2CSSC[C@H](NC(=O)CCC(=O)O)C(=O)N[C@H](Cc3ccccc3)C(=O)N[C@H](C)C(=O)NC(C[C@@H](C)CC)C(=O)N[C@@H](C(=O)N[C@H](Cc3ccccc3)C(=O)N3CCC[C@H]3C(=O)N2)[C@@H](C)OC(=O)[C@H](CO)NC(=O)[C@H]([C@@H](C)OC)N(C)C(=O)[C@@H](C(C)C)NC(=O)[C@H](C[C@H](C)CC)NC1=O` (stereo partly drawn) [Vitilevuamide] (Suc-C[dF][dA][X1][d(aThr)][dF]PCI[Dha][X2][dV][NMeT](Me)S; disulfide 1-8; ester 5-C), for which the IC50 in [2] (panel of tumor cell lines HCT116, A549, SK-MEL-5, A498 cells, read-out: IC50) is 6 to 311 nM.
With `CC[C@H](C)[C@@H]([C@@H](CC(=O)N1CCC[C@H]1[C@H](OC)[C@@H](C)C(=O)NCCc1ccccc1)OC)N(C)C(=O)[C@@H](NC(=O)[C@H](C(C)C)N(C)C)C(C)C` [soblidotin], the inhibition in [2] (cell culture: colon, melanoma, M5076 tumors, P388, dose not reported) is given as 75-85% inhibition. Also, the MTD entry in [12] (IV) is listed as “MTD was 1.8 mg/Kg”.
Consider `C=CC[C@@H](CC/C(C)=C/C=C/CC/C=C\[C@@H]1CSC([C@@H]2C[C@@H]2C)=N1)OC` [Curacin A and analogs], for which, in data set [2] (broad activity (cancer cell lines), read-out: Activity (IC50)), the IC50 was 1 to 29 nM.
Turning to `C=C(Cl)/C=C/[C@@H](O)CC(=C)C[C@H]1O[C@@H]2[C@H](C)[C@@H](OC(=O)C[C@@H]3C[C@H](OC(C)=O)C[C@@]4(C[C@@](C)(O)C[C@H](CC(=C)[C@@H](C)C(OC(C)=O)[C@H](C)C(=O)C[C@@H]5C[C@H](OC)C[C@@]6(C[C@@H](O)C[C@H](/C=C\CCC[C@H]7O[C@](O)(C[C@H](O)[C@H]7C)[C@H]2O)O6)O5)O4)O3)[C@@H]1O` (stereo partly drawn) [Spongistatin-1], the concentration for 50% growth inhibition (GI50) in [1] (NCI tumor panel, values or ends of the range over cell lines, read-out: GI50) was ≥ 0.025 nM and ≤ 0.035 nM.
Take Didemnin B: the “Toxicity (in words)” value is “cardiotoxicity;”. Besides, the “activity against multi-drug/drug resistant cell lines (in words)” value in data set [9] is “Not potent against”. Besides, the MTD in data set [12] (in vivo) is 6.3 mg/Kg; toxicity. For the same molecule, the t1/2 result in data set [7] is “cleared (t1/2 4.8 hrs”.
Take `COc1ccc(C[C@H]2NC(=O)/C=C/C[C@@H]([C@H](C)[C@H]3O[C@@H]3c3ccccc3)OC(=O)[C@H](CC(C)C)OC(=O)C(C)(C)CNC2=O)cc1Cl` [Cryptophycin analogs (including 52, 55 and others)]: the IC50 in data set [2] (broad activity (lung, breast, colon, leukemia), read-out: IC50) was 0.002 to 0.04 nM. Also, the “activity against multi-drug/drug resistant cell lines (in words)” value in data set [9] was “pM; active against”.
For `CC[C@H](C)[C@@H]([C@@H](CC(=O)N1CCC[C@H]1[C@H](OC)[C@@H](C)C(=O)N[C@@H](Cc1ccccc1)c1nccs1)OC)N(C)C(=O)[C@@H](NC(=O)[C@H](C(C)C)N(C)C)C(C)C` [Dolastatin-10], the concentration with myelotoxicity entry (in vivo) is reported as “greater than 0.3 pM)”.
For the molecule `CO[C@]12C=C[C@](C)(O1)[C@@H](OC(=O)/C=C/c1cn(C)cn1)C[C@H]1C(C)=CC[C@H](C(C)C)[C@H]1/C=C\2CO[C@@H]1OC[C@@H](O)[C@@H](O)[C@@H]1OC(C)=O` [Eleutherobins], the “activity against multi-drug/drug resistant cell lines (in words)” value in data set [9] is listed as “taxol; not effective”.
As to `CN[C@H](C(=O)N[C@H](C(=O)N(C)[C@H](/C=C(\C)C(=O)O)C(C)C)C(C)(C)C)C(C)(C)c1c[nH]c2ccccc12` [Hemiasterlins A & B and analogs], the IC50 in [8] is 0.4 ng/mL P388; in data set [10], 0.3 to 3 nM.
In the case of `C=C1C[C@@H]2CCO[C@H]3[C@@H]4O[C@H]5CC[C@H](CC(=O)O[C@@H]6[C@@H](C)[C@@H]7O[C@@H]8C[C@]9(C[C@@H]%10O[C@]%11(C[C@H](C)[C@@H]%12O[C@H](CC(=O)CCO)[C@H](O)C[C@@H]%12O%11)C[C@H](C)[C@@H]%10O9)O[C@@H]8C[C@@H]7O[C@H]6C[C@H]6O[C@@H](CC[C@@H]1O2)C[C@@H](C)C6=C)O[C@@H]5[C@@H]1OCC[C@H]3O[C@@H]14` [Isohomo-halichondrin B], the IC50 in data set [1] (NCI tumor panel) was around 0.1 nM.
As for `COc1ccc(C[C@H]2NC(=O)/C=C/C[C@@H]([C@H](C)[C@@H](O)[C@@H](Cl)c3ccccc3)OC(=O)[C@H](CC(C)C)OC(=O)[C@H](C)CNC2=O)cc1Cl` [Cryptophycin 8], the “activity in cell culture (in words)” value in data set [2] was “broad spectrum”.
